Data set [1] is described as follows: stability in human liver microsomes. The conditions noted are these: both sexes. It counts as in vitro ADME. How it is done:
Experiments were performed by Pharmaron, Inc., China. […] Negative control samples were prepared by replacing the NADPH solution with ultrapure H2O. The negative controls were used to exclude the confounding variable of test compound instability. Experiments involving NADPH were carried out in duplicate. Negative controls were prepared in singlet. Aliquots (90 µL) were taken at 0, 15, 30, 45, and 60 min of incubation. The microsomal reaction in each aliquot was stopped by the addition of four volumes of cold acetonitrile containing internal standards (100 nM alprazolam, 200 nM imipramine, 200 nM labetalol, and 2 µM ketoprofen). The samples were centrifuged at 3,220 × g for 40 min, and an aliquot (90 µL) of the supernatant was mixed with 90 µL of ultrapure H2O. The resulting mixture was used for liquid chromatography–tandem mass spectrometry (LC-MS/MS) analysis (Shimadzu and SCIEX Triple Quad 4500). Peak areas were determined from extracted ion chromatograms. A slope, k, was determined by linear regression analysis of a plot of the natural logarithm of the remaining percentage of the parent drug versus incubation time. The in vitro t1/2 (min) was determined from the slope: in vitro t1/2=−(0.693/k) In vitro t1/2 (min, mean of duplicate determinations) was converted to in vitro intrinsic clearance (in vitro Clint, μL/(min·µg protein)) by means of the following equation : in vitro Clint=(0.693/t1/2)×(volume of incubation (μL)/amount of protein (μg))
Background: Microsomes from liver hold many membrane-bound enzymes, among them those of drug oxidation.

Data set [2] is described as follows: in vivo pharmacokinetics in CD1 male mice. The conditions noted are these: for bioavailability: male, CD1, mouse, oral, 5 mg/kg, read-out: F (bioavailability); for Cmax / Tmax / half-life: mouse. How it is done: Experiments were performed by Pharmaron, Inc. The metabolism and pharmacokinetics of the 6-azasteroids were studied in CD1 male mice approximately 8 weeks old and 20–30 g. […] Each group contained three mice. Blood samples were collected in anticoagulant tubes containing potassium ethylenediaminetetraacetic acid.
Four quality control samples (1, 2, 50, and 800 ng/mL) for plasma were prepared independently of those used for the calibration curves. These quality control samples were prepared on the day of analysis in the same way as the calibration standards. An aliquot (33 µL) of each standard, quality control sample, and unknown sample (30 µL of plasma combined with 3 µL of blank solution) was added to 200 µL of acetonitrile containing an internal standard mixture for precipitating protein. […] The supernatant was diluted three times with water. Diluted supernatant (5 µL) was quantitatively analyzed by LC-MS/MS (API 4000 Triple Quad—AB Sciex, Canada; LC-30A HPLC—Shimadzu, Japan). Non-compartmental pharmacokinetic analysis was performed with Phoenix WinNonlin software (ver. 6.1, Certara, US) using composite data.

A further data set relates to HepG2 cells. The note with it: cited from earlier work.
Another data set has as its system M. leprae 3β-HSD. Kind of data set: NAD+ reduction by M. leprae whole cell lysate. The conditions noted are these: M. leprae WCL with 200 µM cholesterol, vehicle DMSO mean 1.119. The data set is classed as biochemical, Mycobacterium leprae. How it is done: M. leprae whole cell lysate (WCL) was obtained by bead-beating gamma-irradiated M. leprae Strain NHDP (BEI Resources, NR-19326) with 0.1 mm silica beads and FastPrep bead-beater (MP Biomedicals, USA). Homogenization was carried out in three cycles of agitation at 6.5 m/s for 45 s, with the sample being rested on ice for at least 2 min between cycles. The homogenates were centrifuged at 14,000 × g for 5 min to separate the spheres and WCL. The supernatant was recovered, and protein concentration determined using Pierce BCA protein assay (Thermo Fisher Scientific). NAD^+ (200 µM, MilliporeSigma, USA) reduction was measured as previously described using 50 µg (protein) of WCL protein, with the addition of 200 µM of cholesterol (MilliporeSigma) and in the presence or absence of compound 2 (40 and 100 µM) or compound 5 (100 µM) ([10]).

In a further data set the test system is M. leprae. Kind of data set: Shepard's mouse footpad model: bacilli count and molecular viability. It counts as in vivo, Mycobacterium leprae. The note with it: for M. leprae molecular viability, median (16S rRNA cDNA/DNA, RT-qPCR) / M. leprae molecular viability: Balb/c mice footpad; for M. leprae molecular viability, median (16S rRNA cDNA/DNA, RT-qPCR): 50 mg/kg daily alone, 1 month; for M. leprae molecular viability: 50 mg/kg daily in combination with sub-inhibitory rifampicin 1 mg/kg; for bacillary load in footpad, median: Balb/c mice, 50 mg/kg daily by gavage alone, 1 month (20 doses), vehicle median 8.110 × 10^4. How it is done:
Animal experimentation was conducted under approval by the ILSL ethical committee ([…] 02/19). Balb/c female mice with 8-week-old were inoculated with 5 × 10^3 live M. leprae bacilli, strain Thai-53, in both hind footpads, as previously described for the Shepard's model ([25]). Eight groups were tested in the experiment: (i) M. leprae control group (n = 5) inoculated with M. leprae and no additional treatment; (ii) vehicle control group (n = 4) inoculated with M. leprae and treatment with vehicle of the drugs; (iii) regular rifampicin treatment, 10 mg/Kg dose; […] (v) compound 2 treatment (n = 4), 50 mg/kg dose; […] One month after inoculation, mice from the control group were euthanized and the hind footpad was collected to assess the establishment of the infection by bacillary enumeration. At that time point, vehicle or drug treatment was started for the remaining groups. All compounds were administrated by gavage, rifampicin was administered weekly, and the compounds were administered daily (excluding weekends) for 1 month (20 doses). Mice were euthanized 6 h after administration of the last dose, and blood was collected in heparin-coated tubes by cardiac puncture for blood enzyme evaluation and compound 5 measurement by LC/MS in the plasma. The infected hind footpads from each group of mice were excised, homogenized and bacilli enumerated in a 100 μL aliquot as previously described ([26]). The remaining homogenate was centrifuged at 12,000 × g for 15 min, the supernatant was discarded, and the pellet was suspended in 750 μL of RNA later solution (Thermo Fisher Scientific). The homogenized tissue pellet was incubated at 4°C for 16 h and stored at -80°C until determination of M. leprae viability was performed by RT-qPCR ([27], [28]). […] RNA and DNA extractions were performed as previously described ([10], [27]). RNA samples were treated with the Turbo DNA-free kit (Thermo Fisher Scientific), and 1,000 ng of DNAse-treated RNA was then used to synthesize the cDNA using the GoScript kit (Promega, USA).

Setting [3] is: plasma, 5 mg/kg PO vs 1 mg/kg IV.
Where [4] appears, read: human liver microsomes, pH 7.4, 1 μM, HLM 0.5 mg/mL, 37°C, 1 h, mean of duplicates, read-out: HLM stability t1/2.

Where two headings read alike, the source gives them in different places.

In data set [1] (microsomes, pH 7.4, HLM stability t1/2), `CC(C)(C)c1ccc(C(C)(C)C)c(NC(=O)C2CCC3C4CNC5=CC(=O)CC[C@]5(C)C4CC[C@]23C)c1` (stereo partly shown) [Compound 1] gave a half-life at 1 µM of 45 min. Also, in data set [2] (1 mg/kg IV), the AUCinf came out at 356 ng·h/g and the “Clobs (observed clearance)” value is on record as 46.8 (mL/min)/kg. Further, in data set [2] (5 mg/kg PO, plasma), the AUCinf was found to be 822.1 ng·h/g; the Cmax (as a rule, the highest concentration seen after dosing) stood at 501 ng/mL; the Tmax (in general, the time from dosing to the highest level) is 30 min; the half-life was 60 min. In addition, the “time by which most of the compound was cleared from plasma” value in data set [2] (PO administration) is at most 4 h. In addition, the bioavailability in data set [2] (setting [3]) stood at 46.2%. For the same compound, in data set [2] (plasma, 1 mg/kg IV), the Cmax was found to be 803 ng/mL and the Tmax worked out at 38.5 min.
On to `CCCN1CC2C3CCC(C(=O)Nc4cc(C(C)(C)C)ccc4C(C)(C)C)[C@@]3(C)CCC2[C@@]2(C)CCC(=O)C=C12` (stereo partly shown) [Compound 2], for which the half-life at 1 µM in data set [1] (setting [4]) turned out to be 18 min. In the data set on HepG2 cells, the IC50 (commonly the point on the concentration scale where inhibition reaches its midpoint) is 21 µM. The “rate of NAD+ reduction, mean value (ratio absorbance T/absorbance T0)” value with M. leprae 3β-HSD (40 µM) is recorded as 0.9986. Further, the “rate of NAD+ reduction, mean value (ratio absorbance T/absorbance T0)” value with M. leprae 3β-HSD (100 µM) was determined as 1.038. In the data set on M. leprae, the “M. leprae molecular viability, median (16S rRNA cDNA/DNA, RT-qPCR)” value is recorded as 0.5442%; the “M. leprae molecular viability” value is reported as “a reduction in bacterial viability was also observed”; the “bacillary load in footpad, median” value was 7.885 × 10^4.
Take `C[C@]12CCC3C(CNC4=CC(=O)CC[C@@]43C)C1CCC2C(=O)NC(c1ccc(F)cc1)c1ccc(F)cc1` (stereo partly shown) [Compound 5]: the half-life at 1 µM in data set [1] (setting [4]) amounted to 443 min. In addition, in data set [1] (human liver microsomes, pH 7.4, as stated in text, read-out: half-life in human liver microsomes), the half-life at 1 µM was above 360 min. In addition, in the data set on HepG2 cells, the IC50 was 31 µM. The “rate of NAD+ reduction, mean value (ratio absorbance T/absorbance T0)” value in the data set with M. leprae 3β-HSD (100 µM) amounted to 0.9070. In data set [2] (1 mg/kg IV), the AUCinf was 3,123 h·ng/g and the “Clobs (observed clearance)” value is reported as 5.34 (mL/min)/kg. Also, in data set [2] (5 mg/kg PO vs 1 mg/kg IV), the “F (bioavailability)” value is on record as 118.9%. For the same compound, in data set [2] (5 mg/kg PO, plasma), the AUCinf is on record as 18,566 h·ng/g, the peak level (Cmax) was 2210 ng/mL, the Tmax came to 30 min and the half-life was 168 min. For the same compound, the “compound remaining in plasma after 6 h” value in data set [2] (PO administration) was “more than 50%”. Also, in data set [2] (longer than compound 1), the “in vivo t1/2 relative to compound 1” value was “approximately 2.5 fold”. Further, in data set [2] (setting [3]), the bioavailability stood at 119%. In data set [2] (plasma, 1 mg/kg IV), the concentration peaked (Cmax) at 838 ng/mL and the Tmax worked out at 156 min. Also, in the data set on M. leprae, the “M. leprae molecular viability, median (16S rRNA cDNA/DNA, RT-qPCR)” value is 4.205%; the “M. leprae molecular viability” value is “a reduction in bacterial viability was also observed”; the “bacillary load in footpad, median” value is 7.890 × 10^4.
